Data on twelve compounds can be found in patent publication US9765074B2, “Inhibitors of the renal outer medullary potassium channel” (Merck Sharp & Dohme Corp., priority 2013, dated 2017).

By IC50 is commonly meant the concentration at which inhibition is half-maximal. A low value points to greater potency.

The target in the test is T1, hROMK (hKir1.1) (Homo sapiens, UniProt P48048).
T1 construct: expressed in transfected cells
T1 sequence (P48048 1-391): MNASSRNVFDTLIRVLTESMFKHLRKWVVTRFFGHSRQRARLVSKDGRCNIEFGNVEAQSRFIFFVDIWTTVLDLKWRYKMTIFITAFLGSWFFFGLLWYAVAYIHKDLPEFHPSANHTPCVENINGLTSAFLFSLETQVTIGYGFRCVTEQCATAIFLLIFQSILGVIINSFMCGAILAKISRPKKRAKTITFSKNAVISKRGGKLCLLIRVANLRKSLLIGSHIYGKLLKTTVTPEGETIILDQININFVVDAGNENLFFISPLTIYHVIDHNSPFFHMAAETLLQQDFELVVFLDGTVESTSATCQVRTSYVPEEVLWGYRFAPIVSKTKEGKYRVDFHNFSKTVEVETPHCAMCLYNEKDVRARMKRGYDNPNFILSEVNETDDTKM
The experiment in a line: Thallium Flux Assay (ROMK channel functional thallium flux, FLIPR-Tetra). It counts as cell-based. As to conditions: HEK293 cells stably expressing hROMK (hKir1.1); 30 min compound incubation. As for the experimental part: The following Thallium Flux Assay was performed on each of the final product compounds in the Examples.
Cell Culture Conditions—HEK293 cells stably expressing hROMK (hKir1.1) were grown at 37° C. in a 10% CO2 humidified incubator in complete growth media: Dulbecco's Modified Eagle Medium supplemented with non-essential amino acids, Penicillin/Streptomycin/Glutamine, G418 and FBS. At >80% confluency, aspirate the media from the flask and rinse with 10 mL Calcium/Magnesium-free PBS. Add 5 mL of 1× trypsin (prepared in Ca/Mg Free PBS) to T-225 flask and return flask to 37° C./CO2 incubator for 2-3 minutes. To dislodge the cell, gently bang the side of the flask with your hand. Triturate the cells completely and then transfer the cells to 25 mL complete media. Centrifuge at 1,500 rpm for 6 min followed by resuspension in complete growth media and determine cell concentration. For typical re-seeding, 4E6 cells/T-225 flask will attain >80% confluency in 4 days. Under ideal growth conditions and appropriate tissue culture practices, this cell line is stable for 40-45 passages. FluxOR Kit Components (Invitrogen F10017) • FluxOR™ Reagent (Component A) • FluxOR™ Assay Buffer (Component B)—10× Concentrate • PowerLoad™ Concentrate (Component C)—100× Concentrate • Probenecid (Component D)—Lyophilized sample is kept at −20° C. Water soluble, 100× after solubilization in 1 mL water. Store at 4° C. • FluxOR™ Chloride-free Buffer (Component E)—5× Concentrate • Potassium sulfate (K2SO4) Concentrate (Component F)—125 mM in water. Store at 4° C. • Thallium sulfate (Tl2SO4) Concentrate (Component G)—50 mM in water. Store at 4° C. • DMSO (dimethyl sulfoxide, Component H)—1 mL (100%) Reagent Preparation: FluxOR Working Solutions • 1000× FluxOR™ Reagent: Reconstitute a vial of component A in 100 μl DMSO; Mix well; Store 10 μl aliquots at −20° C. • 1× FluxOR™ Assay Buffer: Dilute Component B 10-fold with water; Adjust pH to 7.4 with Hepes/NaOH; Filter and store at 4° C. • Probenecid/Assay Buffer: 100 mL of 1× FluxOR™ Assay Buffer; 1 mL of reconstituted component D; Store at 4° C. • Loading Buffer (per microplate): 10 μl 1000× FluxOR™ Reagent; 100 μl component C; 10 mL Probenecid/Assay Buffer • Compound Buffer (per microplate): 20 mL Probenecid/Assay Buffer; 0.3 mM ouabain (10 mM ouabain in water can be stored in amber bottle/aluminum foil at room temperature); Test compound • 1× FluxOR™ Chloride-Free Buffer: Prepare 1× working solution in water. Can be stored at room temperature • Stimulant Buffer (prepared at 5× final concentration in 1× FluxOR™ Chloride-Free Buffer): 7.5 mM Thallium sulfate and 0.75 mM Potassium sulfate (to give a final assay concentration of 3 mM Thallium/0.3 mM Potassium). Store at 4° C. when not in use. If kept sterile, this solution is good for months. Assay Protocol—The ROMK channel functional thallium flux assay is performed in 384 wells, using the FLIPR-Tetra instrument. HEK-hKir1.1 cells are seeded in Poly-D-Lysine microplates and kept in a 37° C.-10% CO2 incubator overnight. On the day of the experiment, the growth media is replaced with the FluxOR™ reagent loading buffer and incubated, protected from light, at ambient temperature (23-25° C.) for 90 min. The loading buffer is replaced with assay buffer±test compound followed by 30 min incubation at ambient temperature, where the Thallium/Potassium stimulant is added to the microplate. Step Protocol • 1. Seed HEK-hKir1.1 cells (50 μl at 20,000 cells/well) in 384-well PDL coated Microplates • 2. Allow cells to adhere overnight in humidified 37° C./10% CO2 incubator • 3. Completely remove cell growth media from microplate and replace with 25 μl loading buffer • 4. Incubate Microplate at room temperature, protected form light, for 90 min • 5. Remove loading buffer and replace with 25 μl 1× Assay Buffer±test compound. • 6. Incubate microplate at room temperature, protected from light, for 30 min • 7. At FLIPR-Tetra 384: Add stimulant (Thallium/Potassium) solution to microplate and monitor fluorescence. […]
For the compound `CC1=C(N2C(=O)C3(CCN(C[C@@H](O)c4ccc(-n5cnnn5)nc4C)CC3)CC2C)COC1=O` (mixture of isomers) [Example 59, 8-{(2S)-2-hydroxy-2-[2-methyl-6-(1H-tetrazol-1-yl)pyridin-3-yl]ethyl}-3-methyl-2-(4-methyl-5-oxo-2,5-dihydrofuran-3-yl)-1-oxo-2-aza-8-azoniaspiro[4.5]decane], 50 nM corresponded to half-maximal inhibition (IC50). This lies in the double-digit nanomolar range.

`CC1=C(N2CCC3(CCN(C[C@@H](O)c4cnc(-n5cnnn5)cn4)CC3)C2=O)COC1=O` [Example 25, 8-{(2R)-2-hydroxy-2-[5-(1H-tetrazol-1-yl)pyrazin-2-yl]ethyl}-2-(4-methyl-5-oxo-2,5-dihydrofuran-3-yl)-1-oxo-2-aza-8-azoniaspiro[4.5]decane] yielded a half-maximal inhibitory concentration (IC50) of 30 nM.

Regarding `CC1=CN(C2=C(C)C(=O)OC2)C(=O)C12CCN(C[C@H](O)c1ccc(-n3cnnn3)nc1)CC2` [Example 175, 8-{(2R)-2-hydroxy-2-[6-(1H-tetrazol-1-yl)pyridin-3-yl]ethyl}-4-methyl-2-(4-methyl-5-oxo-2,5-dihydrofuran-3-yl)-1-oxo-2-aza-8-azoniaspiro[4.5]dec-3-ene], the midpoint of inhibition, the IC50, lay at 40 nM.

`CC1OC(=O)C=C1N1CCC2(CCN(C[C@H](O)c3ccc(-n4cnnn4)nc3)CC2)C1=O` (mixture of isomers) [Example 226, 8-((R)-2-(6-(1H-tetrazol-1-yl)pyridin-3-yl)-2-hydroxyethyl)-2-(2-methyl-5-oxo-2,5-dihydrofuran-3-yl)-2,8-diazaspiro[4.5]decan-1-one] registered an IC50 of 330 nM. Compared with the last compound, the IC50 is about 8.2-fold higher.

For `CC1=C(N2CCC3(CCN(CCc4ccc(-n5cnnn5)cn4)CC3)C2=O)COC1=O` [Example 238, 2-(4-methyl-5-oxo-2,5-dihydrofuran-3-yl)-1-oxo-8-{2-[5-(1H-tetrazol-1-yl)pyridin-2-yl]ethyl}-2-aza-8-azoniaspiro[4.5]decane], half-maximal inhibition (IC50) was put at 10 nM.

`CC1=C(N2CCC3(CCN(C[C@H](O)c4ncc(-n5cnnn5)cc4C)CC3)C2=O)COC1=O` [Example 28, 8-{(2S)-2-hydroxy-2-[3-methyl-5-(1H-tetrazol-1-yl)pyridin-2-yl]ethyl}-2-(4-methyl-5-oxo-2,5-dihydrofuran-3-yl)-1-oxo-2-aza-8-azoniaspiro[4.5]decane]: the IC50 amounted to 30 nM.

In turn, `CC1=C(N2C(=O)C3(CCN(C[C@H](O)c4cnc(-n5cnnn5)cn4)CC3)CC2C)COC1=O` (single isomer, unassigned) [Example 67] showed an IC50 of 170 nM.

Take `O=C1C=C(N2C(=O)C3(CCN(C[C@H](O)c4ccc(-n5cnnn5)cn4)CC3)CC2C2CC2)CO1` (mixture of isomers) [Example 222, 3-cyclopropyl-8-{(2S)-2-hydroxy-2-[5-(1H-tetrazol-1-yl)pyridin-2-yl]ethyl}-2-(5-oxo-2,5-dihydrofuran-3-yl)-2,8-diazaspiro[4.5]decan-1-one]: half-maximal inhibition (IC50) required 100 nM.

Consider `COC1CN(C2=C(C)C(=O)OC2)C(=O)C12CC1CCC(C2)N1C[C@H](O)c1cnc(-n2cnnn2)cn1` (single isomer, unassigned) [Example 162], for which the IC50 came out at 40 nM.

As for `CCC1CC2(CCN(C[C@H](O)c3ccc(-n4cnnn4)nc3)CC2)C(=O)N1C1=CC(=O)OC1` (mixture of isomers) [Example 218, 3-ethyl-8-{(2R)-2-hydroxy-2-[6-(1H-tetrazol-1-yl)pyridin-3-yl]ethyl}-2-(5-oxo-2,5-dihydrofuran-3-yl)-2,8-diazaspiro[4.5]decan-1-one], it took 10 nM to reach half-maximal inhibition (IC50).

In turn, `CC1=C(N2CCC3(CCN(C[C@H](O)c4cncc(-n5cnnn5)c4)CC3)C2=O)COC1=O` [Example 131, 8-{(2R)-2-hydroxy-2-[5-(1H-tetrazol-1-yl)pyridin-3-yl]ethyl}-2-(4-methyl-5-oxo-2,5-dihydrofuran-3-yl)-1-oxo-2-aza-8-azoniaspiro[4.5]decane] displayed an IC50 of 680 nM. This IC50 is about 68-fold higher than that of the compound before.

As to `CC1=C(N2C(=O)C3(CCN(C[C@H](O)c4ccc(-n5cnnn5)nn4)CC3)CC2C)COC1=O` (single isomer, unassigned) [Example 123], the half-inhibitory concentration (IC50) came out at 60 nM. Compared with the last compound, the IC50 is about 11-fold lower.
